Source: patent publication US6800630B2, “Pyrimidine derivatives having antitumor effect” (Shionogi & Co., Ltd., priority 2000, dated 2004)
≈ marks a conversion by molar mass, not a printed value.

Tests used:
Assay type in all cases: cell-based
[1] = tested on: human lung adenocarcinoma A549; test: In vitro cell growth inhibition test, MTT assay; settings: MTT assay 4 days after compound addition
Text: (§1) Test Example 2 In vitro cell growth inhibition test Cells and MTT assay
(§2) Human squamous lung cancer […], human squamous lung cancer Ma44, human lung adenocarcinoma A549, human colon cancer HT29 and human pancreas cancer PANC-1 were used.

[2] = tested on: human colon cancer HT29; test: In vitro cell growth inhibition test, MTT assay; settings: MTT assay 4 days after compound addition
Text: as §1, §2

[3] = tested on: human squamous lung cancer Ma44; test: In vitro cell growth inhibition test, MTT assay; settings: MTT assay 4 days after compound addition
Text: as §1, §2

[4] = tested on: human pancreas cancer PANC-1; test: In vitro cell growth inhibition test, MTT assay; settings: MTT assay 4 days after compound addition
Text: as §1, §2

[5] = tested on: H460; test: In vitro cell growth inhibition test, MTT assay; settings: MTT assay 4 days after compound addition
Text: [The source words this procedure for another cell line and reports this cell line under the same test.] as §1, §2

[6] = tested on: human squamous lung cancer RERF-RC-AI; test: In vitro cell growth inhibition test, MTT assay; settings: MTT assay 4 days after compound addition
Text: as §1, §2

[7] = tested on: DT-C cells (pGV-P transfected v-ki-ras-transformed NIH373 cells); test: Luciferase activity of DT-C control cells (IC50-C), index of non-specific transcription-inhibitory effect or cytotoxicity; settings: tested concentration nearest to 50% inhibition in DT-C cells
Text: (§3) Test Example 1 Inhibitory effect against cellular signaling derived from Ras oncogene products
(§4) Based on the reporter plasmid (pGV-P (Toyo Ink, Japan)), in which luciferase gene was ligated to SV40-derived minimal promoter, we constructed a plasmid designated pRRE3-luc by inserting 3 copies of chemically synthesized oligonucleotides (Sequence: CAGGATATGACTCT, derived from mouse NVL-3 (M. A. Reddy et al.(1992)Mol. Endocrinol., 6, 1051)) into upstream of the promoter. v-ki-ras-transformed NIH373 cells (DT cells, provided by Dr. Makoto Noda (Kyoto Univ., School of medicine)) were transfected with this plasmid by liposome-mediated transfection and transfected cell lines stably incorporated and maintained each plasmid were obtained. We named pGV-P and pRRE3-transfected cell line as DT-C and DT-R, respectively and used in the assay described below.
(§5) i) All the cell lines were cultured in Dulbecco's Modified Essential Medium (DMEM: 10% Fetal Calf Serum(FCS: Hyclone, USA)) including […] kanamycin (Meiji Seika, Japan) in humidified incubator under condition of 5% CO2 at 37° C.
(§6) ii) DT-C and DT-R cells were seeded at 2500 cells/well into flat-bottom 96 well multiplate (Sumitomo bakelite) and incubated for 24 hours.
(§7) iii) Test compounds were prepared as 1 mg/ml DMSO solution.
(§8) iv) The solution of test compounds were added to the culture. Tested compounds are used at the concentration from […] to 0.51 ng/ml with 3-fold dilution.
(§9) v) After 24 hours, the culture supernatant was completely aspirated and 20 μl of cell-lysing solution (PGC-50 (Toyo Ink, Japan)) was added before cells were dried up. In order to lyse the cells completely, multiwell plates were left at room temperature for 10 to 30 min. The plates were wrapped up and stored at −20° C. till the day of measurement.
(§10) i) Melt the samples by putting 96 well multiplate at 37° C. and add 90 μl/well 25 mM Tris (pH 7.5).
(§11) ii) Transfer 50 μl of the sample (110 μl) to the 96 well microplate (Microlite 1 (Dynatech)) for measurement.
(§12) iii) Measure the samples by the luminometer, LUMINOUS CT9000D (Dia-Yatron, Japan). We used Pickagene luminescence kit PGL2000 or LT2.0 (Toyo Ink, Japan) as enzyme substrates for luminescence measurement (50 μl/well).
(§13) i) The luciferase activity of DT-C cells and DT-R cells were plotted in the graph where the relative activity and the compound concentration were expressed as Y-axis and X-axis, respectively. We judged by the degree of dissociation between the activities of DT-C cells and DT-R cells as an index.
b) Among the points of concentration tested, the concentration which is the nearest to 50% inhibition concentration at DT-C cells (IC50-C), was shown as an index of non-specific transcription-inhibitory effect or of cytotoxicity. In case of positive compounds, 50% inhibition concentration in DT-C cells which was higher than the active concentration was expressed as IC50-C.

[8] = tested on: signal derived from Ras oncogene products (DT-R cells, pRRE3-luc transfected v-ki-ras-transformed NIH373 cells); test: Inhibitory effect against cellular signaling derived from Ras oncogene products: RRE-luciferase reporter, Minimal Active Concentration (MAC) at which DT-C and DT-R activities dissociate; settings: minimal concentration at which luciferase activities of DT-C and DT-R cells dissociated
Text: as §3, §4, §5, §6, §7, §8, §9, §10, §11, §12, §13
ii) Concretely, efficacy of the compound was expressed by two values described below.
a) Among the points of concentration tested, the minimal concentration (Minimal Active Concentration: MAC), at which the activities of DT-C cells and DT-R cells dissociated, was shown as an index of efficacy of the compound.

CCCNC(=Nc1nc(C)ncc1CSc1nnc(-c2ccc(N)cc2)o1)SC [Compound A-12]
IC50 A549 [1]: 0.008 µg/mL (≈ 0.0186 µM) | IC50 HT-29 [2]: 0.0063 µg/mL (≈ 0.0147 µM) | IC50 Ma44 [3]: 0.0095 µg/mL (≈ 0.0221 µM) | IC50 PANC-1 [4]: 0.0091 µg/mL (≈ 0.0212 µM) | IC50 H460 [5]: 0.0115 µg/mL (≈ 0.0268 µM) | IC50 RERF-LC-AI [6]: 0.0057 µg/mL (≈ 0.0133 µM) | IC50 (IC50-C) [7]: >10 µg/mL | MAC (Minimal Active Concentration) [8]: 0.0137 µg/mL

CCCSC(=Nc1nc(C)ncc1CSc1nnc(-c2ccc([N+](=O)[O-])cc2)o1)NCC [Compound A-8]
IC50 A549 [1]: 0.0093 µg/mL (≈ 0.0196 µM) | IC50 HT-29 [2]: 0.0414 µg/mL (≈ 0.0874 µM) | IC50 Ma44 [3]: 0.0341 µg/mL (≈ 0.072 µM) | IC50 PANC-1 [4]: 0.0371 µg/mL (≈ 0.0783 µM) | IC50 H460 [5]: 0.0068 µg/mL (≈ 0.0144 µM) | IC50 RERF-LC-AI [6]: 0.0278 µg/mL (≈ 0.0587 µM) | IC50 (IC50-C) [7]: >10 µg/mL | MAC (Minimal Active Concentration) [8]: 0.123 µg/mL

CCNC(=Nc1nc(C)ncc1CSc1nnc(-c2ccc(N)cc2)o1)SC [Compound A-11]
IC50 A549 [1]: 0.014 µg/mL (≈ 0.0337 µM) | IC50 HT-29 [2]: 0.0067 µg/mL (≈ 0.0161 µM) | IC50 Ma44 [3]: 0.077 µg/mL (≈ 0.185 µM) | IC50 PANC-1 [4]: 0.0064 µg/mL (≈ 0.0154 µM) | IC50 (IC50-C) [7]: >10 µg/mL | MAC (Minimal Active Concentration) [8]: 0.0412 µg/mL

CCNC(=Nc1nc(C)ncc1CSc1nnc(-c2ccc([N+](=O)[O-])cc2)o1)OC [Compound A-32]
IC50 A549 [1]: 0.064 µg/mL (≈ 0.149 µM) | IC50 HT-29 [2]: 0.031 µg/mL (≈ 0.0722 µM) | IC50 Ma44 [3]: 0.042 µg/mL (≈ 0.0978 µM) | IC50 PANC-1 [4]: 0.034 µg/mL (≈ 0.0792 µM) | IC50 RERF-LC-AI [6]: 0.031 µg/mL (≈ 0.0722 µM) | IC50 (IC50-C) [7]: >10 µg/mL | MAC (Minimal Active Concentration) [8]: 0.123 µg/mL

CCNC(=Nc1nc(C)ncc1CSc1nnc(-c2ccc([N+](=O)[O-])cc2)o1)OC(C)C [Compound A-35]
IC50 A549 [1]: 0.011 µg/mL (≈ 0.024 µM) | IC50 HT-29 [2]: 0.0033 µg/mL (≈ 0.00721 µM) | IC50 Ma44 [3]: 0.0069 µg/mL (≈ 0.0151 µM) | IC50 PANC-1 [4]: 0.0054 µg/mL (≈ 0.0118 µM) | IC50 RERF-LC-AI [6]: 0.0067 µg/mL (≈ 0.0146 µM) | IC50 (IC50-C) [7]: >10 µg/mL | MAC (Minimal Active Concentration) [8]: 0.0412 µg/mL

CNC(=Nc1nc(C)ncc1CSc1nnc(-c2ccc([N+](=O)[O-])cc2)o1)OC(C)C [Compound A-34]
IC50 A549 [1]: 0.021 µg/mL (≈ 0.0474 µM) | IC50 HT-29 [2]: 0.0046 µg/mL (≈ 0.0104 µM) | IC50 Ma44 [3]: 0.0091 µg/mL (≈ 0.0205 µM) | IC50 PANC-1 [4]: 0.0075 µg/mL (≈ 0.0169 µM) | IC50 RERF-LC-AI [6]: 0.013 µg/mL (≈ 0.0293 µM) | IC50 (IC50-C) [7]: >10 µg/mL | MAC (Minimal Active Concentration) [8]: 0.0137 µg/mL

CCNC(=Nc1nc(C)ncc1CSc1nnc(-c2ccc([N+](=O)[O-])cc2)o1)SCC [Compound A-6]
IC50 A549 [1]: 0.0256 µg/mL (≈ 0.0557 µM) | IC50 HT-29 [2]: 0.0244 µg/mL (≈ 0.0531 µM) | IC50 Ma44 [3]: 0.0182 µg/mL (≈ 0.0396 µM) | IC50 PANC-1 [4]: 0.0148 µg/mL (≈ 0.0322 µM) | IC50 H460 [5]: 0.0256 µg/mL (≈ 0.0557 µM) | IC50 RERF-LC-AI [6]: 0.015 µg/mL (≈ 0.0326 µM) | MAC (Minimal Active Concentration) [8]: 0.0412 µg/mL

CNC(=Nc1nc(C)ncc1CSc1nnc(-c2ccc(N)cc2)o1)SC [Compound A-10]
IC50 Ma44 [3]: 0.08 µg/mL (≈ 0.199 µM) | IC50 (IC50-C) [7]: >10 µg/mL | MAC (Minimal Active Concentration) [8]: 1.11 µg/mL

CCNC(=Nc1nc(C)ncc1CSc1nnc(-c2ccc([N+](=O)[O-])cc2)o1)SC [Compound A-3]
IC50 A549 [1]: 0.063 µg/mL (≈ 0.141 µM) | IC50 HT-29 [2]: 0.052 µg/mL (≈ 0.117 µM) | IC50 Ma44 [3]: 0.056 µg/mL (≈ 0.126 µM) | IC50 PANC-1 [4]: 0.051 µg/mL (≈ 0.114 µM) | IC50 RERF-LC-AI [6]: 0.046 µg/mL (≈ 0.103 µM) | IC50 (IC50-C) [7]: >10 µg/mL | MAC (Minimal Active Concentration) [8]: 0.37 µg/mL

CCNC(=Nc1nc(C)ncc1CSc1nnc(-c2ccc([N+](=O)[O-])cc2)o1)OCC [Compound A-33]
IC50 A549 [1]: 0.023 µg/mL (≈ 0.0519 µM) | IC50 HT-29 [2]: 0.0066 µg/mL (≈ 0.0149 µM) | IC50 Ma44 [3]: 0.0091 µg/mL (≈ 0.0205 µM) | IC50 PANC-1 [4]: 0.0086 µg/mL (≈ 0.0194 µM) | IC50 RERF-LC-AI [6]: 0.0093 µg/mL (≈ 0.021 µM) | IC50 (IC50-C) [7]: >10 µg/mL | MAC (Minimal Active Concentration) [8]: 0.0412 µg/mL

CNC(=Nc1nc(C)ncc1CSc1nnc(-c2ccc([N+](=O)[O-])cc2)o1)NCC(F)(F)F [Compound C-1, reference compound]
IC50 A549 [1]: 0.016 µg/mL (≈ 0.0332 µM) | IC50 HT-29 [2]: 0.0066 µg/mL (≈ 0.0137 µM) | IC50 Ma44 [3]: 0.011 µg/mL (≈ 0.0228 µM) | IC50 PANC-1 [4]: 0.0064 µg/mL (≈ 0.0133 µM) | MAC (Minimal Active Concentration) [8]: 0.0412 µg/mL
